Measured values published in patent US10813904B2, “Small molecule anticancer agents” (University of Florida Research Foundation, Incorporated, priority 2017, dated 2020).
Entries after “also recorded” stand apart in the source; their conditions may differ.

Columns and labels:
Format in all cases: cell-based
[1] = tested on: BT474 cells; experiment: Immunoblot analysis of BT474 cell extracts
Procedure: (§1) The following cell lines were purchased from American Type Culture Collection (ATCC) (Manassas, Va.): MDA-MB-468, BT474, T47D, SKBR3, MDA-MB-231, HCC1954, HEK 293, TSC2-Ang1, and BxPC3. The HCI-012 cell line was derived from the HCI-012 Patient-Derived Xenograft tumor line provided by Dr. Alana Welm using conditional cell reprogramming. Wild type and eIF2α[S51A] homozygous knock-in Mouse Embryo Fibroblasts (MEFs) were described previously.
(§2) Cells were grown in Dulbecco's modified Eagle's medium (GE Healthcare Life Sciences Logan, Utah) supplemented with 10% fetal bovine serum (10% FBS-DMEM) in a humidified 37° C. incubator with 5% CO2. Cell lysates were prepared using a buffer containing 1% Triton X100, 20 mM HEPES (pH 7.4), 1 mM EDTA, 1 mM EGTA, 0.1% 3-mercaptoethanol, 5% glycerol, 10 nM microcystin, 200 μM Na3VO4 and 40 mM Na2H2P2O7 as described previously.
(§3) Immunoblot analysis was carried out using primary antibodies purchased from Santa Cruz Biotechnology (Dallas, Tex.) [Actin, sc-1616-R; ERK, sc-93; JNK, sc-572; P-JNK, sc-6254; Src, sc-18; EGFR, sc-03; GRP78, sc-13539; Phosphotyrosine (PY99), sc-7020], Cell Signaling Technology (Beverly, Mass.) [Akt, #4691; P-Akt[T308], #13038; P-Akt[S473], #9271; ATF4, #11815; CHOP, #2895; P-Src[Y527], #2105; EGFR, #4267; HER2, #2165; HER3, #4754; Calnexin, #2679; #13024; P-Erk, #9101; IRE1α, #3294; XBP1s, #12782; PARP, #9532; PDI, #3501; PERK, #5683; S6, #2212; P-S6, #2211; P-Src[Y416], #6943], BD Transduction Laboratories (San Jose, Calif.) [PAI-1, 612024], Millipore (Temecula, Calif.) [anti-phosphotyrosine (4G10), 05-321], and Sigma-Aldrich (St. Louis, Mo.) [anti-FLAG (M2), F3165]. To quantify immunoblot results, bands were analyzed using ImageJ (imagej.nih.gov/ij/) and each band was normalized to the corresponding Actin loading control band.

[2] = tested on: Mouse Embryo Fibroblasts (MEFs); experiment: Immunoblot analysis of Mouse Embryo Fibroblasts; settings: 24 hours, thapsigargin 400 nM, tunicamycin 500 ng/ml; for Akt phosphorylation, wild type MEFs / ER stress response / UPR, wild type MEFs / PARP cleavage, wild type MEFs: RBF3 20 μM, DTT 5 mM
Procedure: as §1, §2, §3

[3] = tested on: MDA-MB-468 cells; experiment: Immunoblot analysis of MDA-MB-468 cell extracts; settings: for ATF4 and CHOP expression: compared with 20 μM RBF3; for ER stress response / UPR activation / HER3 levels / Akt phosphorylation / PARP cleavage (cell death): 2-DOG 4 mM; for ER stress response / UPR activation / Akt phosphorylation / PARP cleavage (cell death): DTDO 20 μM
Procedure: as §1, §2, §3

[4] = tested on: HCC1954 cells; experiment: Immunoblot analysis of HCC1954 cells; settings: 24 hour; 20 μM RBF3, 20 μM Lapatinib
[5] = tested on: MDA-MB-468 or BT474 cells; experiment: Immunoblot analysis, MDA-MB-468 or BT474 cells (text does not separate the lines); settings: for DDA activation of the ER stress response when protein synthesis is inhibited: 20 μM RBF3 with 20 μM CHX or 5 μg/ml Puromycin
Procedure: as §2, §3

[6] = tested on: XBP1 mRNA splicing in MDA-MB-468 cells; experiment: RT-PCR of XBP1 mRNA splicing; settings: 24 hours; RBF3 20 μM, DTT 2 mM
Procedure: RNA was isolated from MDA-MB-468 and BT474 cells with Trizol Reagent (Invitrogen) according to the manufacturer's instructions, and reverse transcribed to cDNA under the following conditions: 25° C. for 10 min, 42° C. for 30 min, and 95° C. for 5 min. PCR was performed using XBP1 and β-Actin primers. The primers used to amplify XBP1 are as follows: Forward: […] and Reverse: […]. The primers used to amplify (3-Actin are as follows: Forward: […] and Reverse: […]. Reactions were performed as follows: 96° C. for 5 min followed by 35 cycles of 95° C. for 45 sec, 60° C. for 1 min, and 72° C. for 30 sec. Reaction products were visualized on 3% agarose gels.

[7] = tested on: BT474 cells; experiment: MTT cell viability assay, BT474; settings: 72 hours
Procedure: (§4) Cell viability was evaluated using MTT (3-(4,5-dimethylthiazol-2-yl)-2,5-diphenyltetrazolium bromide) assays carried out based on the manufacturer's instructions (kit CGD1, Sigma-Aldrich, St. Louis, Mo.)

[8] = tested on: MDA-MB-468 cells; experiment: MTT cell viability assay, MDA-MB-468; settings: 72 hours, increasing concentrations
Procedure: as §4

[9] = tested on: T47D cells; experiment: Immunoblot analysis of T47D stable cell lines (vector, EGFR or HER2 overexpressing); settings: 20 μM NSC624205, 24 hours
Procedure: Recombinant retroviruses were prepared and used to produce stable cell lines as described previously. Retroviral vectors encoding EGFR (plasmid 11011, [68]) and HER2 (plasmid 40978 [69]) were from Addgene (Cambridge, Mass.).
Cells were grown in Dulbecco's modified Eagle's medium (GE Healthcare Life Sciences Logan, Utah) supplemented with 10% fetal bovine serum (10% FBS-DMEM) in a humidified 37° C. incubator with 5% CO2. Cell lysates were prepared using a buffer containing 1% Triton X100, 20 mM HEPES (pH 7.4), 1 mM EDTA, 1 mM EGTA, 0.1% 3-mercaptoethanol, 5% glycerol, 10 nM microcystin, 200 μM Na3VO4 and 40 mM Na2H2P2O7 as described previously. […]

[10] = 24 hours, RBF3 20 μM, thapsigargin 400 nM
[11] = RBF3 20 μM, thapsigargin 400 nM, DTT 2 mM
[12] = thapsigargin 400 nM, tunicamycin 500 ng/ml, DTT 2 mM
[13] = 2.5 μM Gefitinib or Lapatinib, 24 hours
[14] = 24 hours, RBF3 20 μM, 2-DOG 4 mM
[15] = increasing concentration, 24 hours (FIG. 5B)

Compound: C/C=C(/C)C(=O)O[C@H]1C(C)=C2[C@H]([C@@H]1OC(=O)CCCCCCC)[C@@](C)(OC(C)=O)C[C@H](OC(=O)CCC)[C@@]1(O)[C@H]2OC(=O)[C@@]1(C)O [thapsigargin]
- ATF4 and CHOP expression [1, 10]: strongly upregulated
- PERK electrophoretic mobility ([1]; 24 hours, thapsigargin 400 nM): more strongly decreased
- Akt phosphorylation, wild type MEFs [2]: markedly suppressed
- ER stress response / UPR, wild type MEFs [2]: induced a robust UPR
- PARP cleavage, wild type MEFs [2]: strongly upregulated
- CHOP, ATF4, and GRP78 upregulation in eIF2α[S51A] knock-in MEFs [2]: significantly blunted
- PARP cleavage or XBP1s upregulation, effect of S51A eIF2a mutation [2]: did not affect
- XBP1s expression [3, 11]: more strongly than RBF3
- ATF4 and CHOP expression [3, 12]: more effectively than RBF3
- ATF4 and CHOP expression ([3]; thapsigargin 400 nM, tunicamycin 500 ng/ml, DTT 2 mM, listed as Thapsigargin): more strongly than RBF3

Compound: CS(=O)(=O)CCNCc1ccc(-c2ccc3ncnc(Nc4ccc(OCc5cccc(F)c5)c(Cl)c4)c3c2)o1 [Lapatinib]
- CHOP expression, Lapatinib with RBF3 [4]: cooperated with RBF3 to upregulate
- RBF3-induced UPR with respect to GRP78, XBP1s, or ATF4 levels, with Lapatinib [4]: only weakly potentiated
- concentration of RBF3 required to downregulate HER3 levels and Akt phosphorylation, on co-treatment [3, 13]: lowered

Compound: O[C@H](CS)[C@H](O)CS (racemic) [DTT, dithiothreitol]
- EGFR and HER2 expression ([1]; 24 hours, RBF3 20 μM): only does so in the MDA-MB-468 line
- XBP1s and GRP78 expression (ER stress markers) ([1]; 24 hours, RBF3 20 μM): increased
- Akt phosphorylation [1, 14]: decreased
- ATF4 and CHOP expression [1, 10]: little upregulation
- concentrations that activate UPR / induce a similar level of ER stress [5]: millimolar concentrations
- IRE1-dependent XBP1 mRNA processing / splicing [6]: does not upregulate
- Akt phosphorylation, wild type MEFs [2]: weakly suppressed
- ER stress response / UPR, wild type MEFs [2]: did not induce
- PARP cleavage, wild type MEFs [2]: induced PARP cleavage
- ER stress response / UPR activation ([3]; 24 hours, DTT 2 mM): only weakly activated
- GRP78 expression ([3]; 24 hours, RBF3 20 μM, DTT 2 mM): only weakly induces
- HER3 levels ([3]; 24 hours, RBF3 20 μM, DTT 2 mM): less so; also recorded: induces downregulation
- Akt phosphorylation ([3]; 24 hours, RBF3 20 μM, DTT 2 mM): suppresses
- PARP cleavage (cell death) ([3]; 24 hours, RBF3 20 μM, DTT 2 mM): only weakly induces
- EGFR levels ([3]; 24 hours, RBF3 20 μM, thapsigargin 400 nM, tunicamycin 500 ng/ml, DTT 2 mM): induces downregulation
- XBP1s expression [3, 11]: does not upregulate
- ATF4 and CHOP expression [3, 12]: does not upregulate

Compound: COc1cc2ncnc(Nc3ccc(F)c(Cl)c3)c2cc1OCCCN1CCOCC1 [Gefitinib]
- CHOP expression, combination with RBF3 [3, 13]: cooperated with RBF3 to upregulate
- concentration of RBF3 required to downregulate HER3 levels and Akt phosphorylation, on co-treatment [3, 13]: lowered

Compound: O=CC[C@@H](O)[C@H](O)[C@H](O)CO [2-DOG, 2-deoxyglucose]
- HER3 expression ([1]; 24 hours, 2-DOG 4 mM): did not cause downregulation
- PARP cleavage ([1]; 24 hours, 2-DOG 4 mM): did not increase cell death
- UPR activation ([1]; 24 hours, 2-DOG 4 mM): strongly activated UPR
- Akt phosphorylation [1, 14]: did not cause downregulation
- ER stress response / UPR activation ([3]; 24 hours, DTT 2 mM): strongly activated UPR
- HER3 levels ([3]; 24 hours, RBF3 20 μM, DTT 2 mM): did not cause downregulation
- Akt phosphorylation ([3]; 24 hours, RBF3 20 μM, DTT 2 mM): did not cause downregulation
- PARP cleavage (cell death) ([3]; 24 hours, RBF3 20 μM, DTT 2 mM): did not increase cell death

Compound: COc1ccc(C[C@H](N)C(=O)N[C@H]2[C@@H](O)[C@H](n3cnc4c(N(C)C)ncnc43)O[C@@H]2CO)cc1 [Puromycin, puromycin]
- DDA activation of the ER stress response when protein synthesis is inhibited ([5]; 8 hours): reduced

Compound: O=C(CCSSCCCCS(=O)[O-])OCC(COC(=O)CCSSCCCCS(=O)[O-])(COC(=O)CCSSCCCCS(=O)[O-])COC(=O)CCSSCCCCS(=O)[O-].[Na+].[Na+].[Na+].[Na+] (centres unmarked) [PEMP-DDA]
- cell viability (MTT) [7]: reduced BT474 cell viability more than RBF3
- HER2 expression, quantified, compared with RBF3 ([1]; same drug concentrations, 24 hours (FIG. 6B)): significantly more than RBF3
- PARP cleavage (cPARP), quantified, compared with RBF3 ([1]; same drug concentrations, 24 hours (FIG. 6C)): significantly more than RBF3
- cell viability (MTT) [8]: reduced cell viability in a concentration-dependent manner
- Akt phosphorylation, comparison of bi-, tri- and tetravalent DDAs [3, 15]: more than RBF3 or Bn-DDA
- HER3 levels, comparison of bi-, tri- and tetravalent DDAs [3, 15]: more than RBF3 or Bn-DDA

Compound: NCCOB(c1ccccc1)c1ccccc1 [2-APB, 2-aminoethoxydiphenyl borate]
- RBF3-induced downregulation of HER3, Akt dephosphorylation, or PARP cleavage, with 2-APB [5]: did not alter
- RBF3-mediated GRP78 upregulation, with 2-APB [5]: reduced

Compound: O=S(O)CCCCSSCCCCSSCCCCS(=O)O [NSC624205]
- HER3 expression in EGFR or HER2 overexpressing T47D cells [9]: reduced HER3 expression to very low levels; also recorded: more sensitive to downregulation

Compound: tunicamycin
- Akt phosphorylation, wild type MEFs [2]: markedly suppressed
- ER stress response / UPR, wild type MEFs [2]: induced a robust UPR
- PARP cleavage, wild type MEFs [2]: strongly upregulated
- CHOP, ATF4, and GRP78 upregulation in eIF2α[S51A] knock-in MEFs [2]: significantly blunted
- PARP cleavage or XBP1s upregulation, effect of S51A eIF2a mutation [2]: did not affect
- ATF4 and CHOP expression [3, 12]: more effectively than RBF3

Compound: C[C@@H]1C[C@@H]([C@H](O)CC2CC(=O)NC(=O)C2)C(=O)[C@@H](C)C1 [CHX, cycloheximide]
- HER2 expression, RBF3 with CHX ([1]; 24 hour, 20 μM RBF3, 20 μM CHX): partially restored
- DDA-mediated downregulation of EGFR or HER3, with CHX ([5]; 8 hours, 20 μM RBF3, 20 μM CHX): did not overcome
- RBF3-induced PARP cleavage and Akt dephosphorylation, with CHX ([5]; 8 hours, 20 μM RBF3, 20 μM CHX): partly overcame
- DDA activation of the ER stress response when protein synthesis is inhibited ([5]; 8 hours): reduced
- CHX blockade of RBF3-induced PARP cleavage ([5]; 24 hour treatment): less apparent
- RBF3-mediated UPR on co-treatment with CHX ([3]; 2-16 hrs): rapidly and persistently blocked
